Results taken from patent US5543415A, “Antidepressants” (Kyowa Hakko Kogyo Co., Ltd., priority 1992, dated 1996).

Key:
[1] = system: clonidine-induced aggressive behavior; assay: Effect on Clonidine-Induced Aggressive Behavior (number of biting attacks during 30 minutes); type: in vivo, male ddY mice; details: 10 mg/kg, po; for Number of the Biting Attacks (mean ± S.E.M.), Test Compound-Treated Group: 60 min before clonidine 20 mg/kg ip, 30 min count; for response vs control in vivo at 10 mg/kg: Mus musculus, read-out: Number of the Attacks of Test Compound-Treated Group/Number of the Attacks of Control Group
Experimental: The effect of a test compound on the aggressive behavior induced by intraperitoneal administration of clonidine was investigated. […] The experiment was performed by using several groups of male ddY mice (weighing 20 to 25 g, Japan SLC), each group consisting of two mice. The test compound was suspended in injectable distilled water (Otsuka Pharmaceutical Co., Ltd.) containing Tween 80 [polyoxyethylene (20) sorbitan monooleate]. Clonidine hydrochloride (Sigma Co.) was dissolved in physiological saline solution (Otsuka Pharmaceutical Co., Ltd.). The test compound suspension and the control suspension were orally administered to separate groups of the mice (0.1 ml per 10 g of body weight). Sixty minutes after the oral administration of the test compound, clonidine hydrochloride (20 mg/kg) was intraperitoneally injected. The number of biting attacks during 30 minutes after clonidine treatment was counted. The effect of the compound was evaluated by comparing the average number of biting attacks of the test compound-administered groups with that of control groups (Statistical comparison: Student's t-test).

ddY-strain male mice = assay: Acute Toxicity Test (minimum lethal dose, oral); type: in vivo; details: seven days after administration
Experimental: Test compounds were orally administered to groups of ddY-strain male mice weighing 20±1 g, each group consisting of three mice. Seven days after the administration, minimum lethal dose (MLD) of each compound was determined by observing the mortality.

| Compound | Number of the Biting Attacks (mean ± S.E.M.), Test Compound-Treated Group [1] | response vs control in vivo at 10 mg/kg [1] [%] | MLD (minimum lethal dose) (ddY-strain male mice) [mg/kg] |
| --- | --- | --- | --- |
| CCn1c(=O)c2c(nc(/C=C/c3ccccc3F)n2C)n(CC)c1=O [Compound 168, (E)-1,3-Diethyl-8-(2-fluorostyryl)-7-methylxanthine] | 53.9 ± 8.59 | 710 | > 100 |
| CCn1c(=O)c2c(nc(/C=C/c3ccc(OC)c(F)c3)n2C)n(CC)c1=O [Compound 173, (E)-1,3-Diethyl-8-(3-fluoro-4-methoxystyryl)-7-methylxanthine] | 46.8 ± 14.89 | 620 | > 100 |
| CCn1c(=O)c2c(nc(/C=C/c3ccc(OC)c(C)c3)n2C)n(CC)c1=O [Compound 175, (E) -1,3-Diethyl-8-(4-methoxy-3-methylstyryl)-7-methylxanthine] | 49.1 ± 15.59 | 790 | > 100 |
| CCn1c(=O)c2c(nc(/C=C/c3cc(OC)c4c(c3)OCO4)n2C)n(CC)c1=O [Compound 179, (E)-1,3-Diethyl-8-(3-methoxy-4,5-methylenedioxystyryl)7-methylxanthine] | 67.7 ± 16.08 |  | > 100 |
| CCn1c(=O)c2c(nc(/C=C/c3cccc(F)c3C)n2C)n(CC)c1=O [Compound 181, (E)-1,3-Diethyl-8-(3-fluoro-2-methylstyryl)-7-methylxanthine] | 49.5 ± 9.09 | 800 | > 100 |
| CCn1c(=O)c2c(nc(/C=C/c3ccc(O)cc3)n2C)n(CC)c1=O [Compound 184, (E)-1,3-Diethyl-8-(4-hydroxystyryl)-7-methylxanthine] | 77.1 ± 11.47 |  | > 100 |
| CCn1c(=O)c2c(nc(/C=C/c3ccc(OCc4ccccc4)cc3)n2C)n(CC)c1=O [Compound 185, (E)-8-(4-Benzyloxystyryl)-1,3-diethyl-7-methylxanthine] | 46.9 ± 14.00 | 620 | > 100 |
